Assay results published in patent US12552765B2, “Small molecule modulators of pantothenate kinases” (ST. JUDE CHILDREN'S RESEARCH HOSPITAL, INC., priority 2016, dated 2026).

molecular target: hPanK3 (Homo sapiens, UniProt Q9H999); test: Inhibition of PanK kinase activity (phosphorylation of pantothenate, purified protein); assay type: biochemical; details: not given
Sequence (Q9H999 whole entry): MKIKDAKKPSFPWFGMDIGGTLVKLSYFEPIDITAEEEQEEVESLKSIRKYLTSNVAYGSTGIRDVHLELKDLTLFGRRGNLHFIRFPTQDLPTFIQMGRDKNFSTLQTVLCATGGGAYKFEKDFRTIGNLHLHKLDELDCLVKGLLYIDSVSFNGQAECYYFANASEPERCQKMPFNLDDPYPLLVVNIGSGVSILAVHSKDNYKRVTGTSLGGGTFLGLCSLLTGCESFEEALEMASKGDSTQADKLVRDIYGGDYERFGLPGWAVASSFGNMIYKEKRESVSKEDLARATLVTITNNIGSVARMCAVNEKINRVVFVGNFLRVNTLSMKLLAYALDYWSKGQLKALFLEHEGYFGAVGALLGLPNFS

| SMILES | IC50 [nM] |
| --- | --- |
| N#Cc1ccc(N2CCN(C(=O)NC3CCCCC3)CC2)nc1 [Compound 19] | > 10000 |
| CC(C)c1cc(NC(=O)N2CCN(c3ccc(C#N)cn3)CC2)on1 [Compound 27] | > 10000 |
| CC(C)(C)NC(=O)N1CCN(c2ccc(C#N)cn2)CC1 [Compound 20] | > 10000 |
| CCCCCCCCNC(=O)N1CCN(c2ccc(C#N)cn2)CC1 [Compound 21] | > 10000 |
| N#Cc1ccc(N2CCN(C(=O)NCc3ccco3)CC2)nc1 [Compound 25] | > 10000 |
| Cc1ccc(CNC(=O)N2CCN(c3ccc(C#N)cn3)CC2)cc1 [Compound 24] | > 10000 |
| CC(C)NC(=O)N1CCN(c2ccc(C#N)cn2)CC1 [Compound 22] | > 10000 |

same assay, conditions: Morrison Ki fit

| SMILES | Ki [nM] |
| --- | --- |
| CC(C)c1ccc(CC(=O)N[C@H]2CN(c3ccc(C#N)nn3)C[C@@H]2O)cc1 [Compound 87] | 12.3 |
| CC(C)c1ccc(CC(=O)N[C@@H]2CN(c3ccc(C#N)nn3)C[C@@H]2O)cc1 [Compound 92] | 40.8 |
| CCC(C)c1ccc(NC(=O)N2CCN(c3ccc(C#N)nn3)CC2)cc1 (centres unmarked) [Compound 66] | 7.8 |
| CC(C)c1ccc(CC(=O)N[C@@H]2CN(c3ccc(C#N)nn3)C[C@H]2O)cc1F [Compound 105] | 44.8 |
| Cc1cc(OC(=O)N2CCN(c3ccc(C#N)nn3)CC2)ccc1C(C)C [Compound 80] | 55.7 |
| CC(C)c1ccc(CC(=O)N[C@H]2CCN(c3ccc(C#N)nn3)C2)cc1F [Compound 94] | 1.1 |
| CC(C)(C)c1ccc(CC(=O)N2CCN(c3ccc(Cl)nn3)CC2)cc1 [Compound 74] | 1.8 |
| CC(C)c1ccc(CC(=O)N2CCN(c3ccc(C#N)nn3)CC2)nc1 [Compound 82] | 62.5 |
| CC(C)c1ccc(CC(=O)N[C@@H]2CN(c3ccc(C#N)nn3)C[C@H]2O)cc1 [Compound 91] | 35 |
| CC(C)(C)c1ccc(CC(=O)N2CCN(c3ccc(C#N)nn3)CC2)cc1 [Compound 73] | 0.97 |
| CC(C)c1ccc(CC(=O)N2CC[C@@H](Nc3ccc(C#N)nn3)C2)cc1 [Compound 84] | 9.1 |
| CC(C)c1ccc(NC(=O)N[C@H]2CCN(c3ccc(C#N)nn3)C2)cc1 [Compound 88] | 36.3 |
| CC(C)c1ccc(CC(=O)N[C@@H]2CCN(c3ccc(C#N)nn3)C2)cc1 [Compound 86] | 26.6 |
| CC(C)c1ccc(CC(=O)NCCNc2ccc(C#N)nn2)cc1 [Compound 90] | 28.3 |
| CC(C)c1ccc(OC(=O)N2CCN(c3ccc(Cl)nn3)CC2)cc1 [Compound 76] | 1.8 |
| CC(C)(C)c1ccc(C(F)(F)C(=O)N2CCN(c3ccc(C#N)nn3)CC2)cc1 [Compound 77] | 20.8 |
| CC(C)c1ccc(CC(=O)N[C@H]2CN(c3ccc(C#N)nn3)C[C@@H]2O)cc1F [Compound 95] | 51 |
| CC(C)c1ccc(CC(=O)N[C@H]2CCN(c3ccc(C#N)nn3)C2)c(F)c1 [Compound 100] | 1.5 |
| CC(C)c1ccc(CC(=O)N[C@H]2CCN(c3ccc(C#N)nn3)C2)cc1 [Compound 85] | 7.1 |

Now from value to molecule:

| Ki [nM] | SMILES |
| --- | --- |
| 12.5 | CC(C)c1ccc(CC(=O)N2CCN(c3ncc(Cl)nc3N)CC2)cc1 [Compound 116] |
| 4.7 | CC(C)c1ccc(OC(=O)N2CCN(c3ccc(C#N)nn3)[C@H](C)C2)cc1 [Compound 139] |
| 3.3 | CC(C)c1ccc(CC(=O)N2CCN(c3ccc(C#N)nn3)CC2)s1 [Compound 119] |
| 9.7 | CC(C)c1ccc(CC(=O)N2CCN(c3ccc(Cl)nn3)[C@@H](C)C2)cn1 [Compound 133] |
| 0.64 | CC(C)c1ccc(CC(=O)N2CCN(c3ccc([N+](=O)[O-])nc3)CC2)cc1 [Compound 120] |
| 1.3 | CC(C)c1ccc(CC(=O)N2CCN(c3ccc(C#N)nn3)[C@@H](C)C2)s1 [Compound 128] |
| 21 | CC(C)c1ccc(NC(=O)N2CCN(c3cnc(Cl)cn3)CC2)cc1 [Compound 113] |
| 1.7 | C[C@@H]1CN(C(=O)Cc2ccc(C(C)(C)C)cc2)CCN1c1ccc(C#N)nn1 [Compound 141] |
| 5 | CC(C)c1ccc(CC(=O)NC2CCN(c3ccc(C#N)nn3)CC2)cc1 [Compound 118] |
| 12.6 | CC(C)c1ccc(CC(=O)N2CCN(c3ccc(C#N)nn3)[C@@H](C)C2)cn1 [Compound 132] |
| 1.5 | CC(c1ccc(CC(=O)N2CCN(c3ccc(C#N)nn3)[C@H](C)C2)cc1)C(F)(F)F (some centres unmarked) [Compound 145] |
| 4.1 | CC(C)c1ccc(CC(=O)N2CCN(c3cnc(Cl)cn3)CC2)s1 [Compound 122] |
| 0.13 | CC(C)c1ccc(CC(=O)N2CCN(c3ccc(C#N)nn3)[C@H](C)C2)cc1 [Compound 123] |
| 1.4 | CC(C)c1ccc(CC(=O)N2CCN(c3ccc(C#N)nn3)C[C@H]2C)cc1 [Compound 121] |
| 1.1 | CC(C)c1ccc(CC(=O)N2CCN(c3ccc(C#N)nn3)C[C@@H]2C)cc1 [Compound 124] |
| 33.7 | CC(C)c1ccc(OC(=O)N2CCN(c3cnc(C#N)cn3)CC2)cc1 [Compound 110] |
| 14.1 | CC(C)c1ccc(N(C)C(=O)N2CCN(c3ccc(C#N)nn3)CC2)cc1 [Compound 108] |
| 5.9 | CC(C)c1ccc(CC(=O)N[C@H]2CCN(c3ccc(C#N)nn3)C2)cn1 [Compound 106] |
| 0.09 | CC(C)c1ccc(CC(=O)N2CCN(c3ccc(C#N)nn3)[C@@H](C)C2)cc1 [Compound 126] |
| 21.1 | CC(C)c1ccc(CC(=O)N[C@@H]2CN(c3ccc(C#N)nn3)C[C@H]2O)c(F)c1 [Compound 107] |
| 1 | C[C@H]1CN(C(=O)Cc2ccc(C(C)(C)C)cc2)CCN1c1ccc(C#N)nn1 [Compound 140] |
| 10.6 | CC(C)c1ccc(CC(=O)N2CCN(c3ccc(Cl)nn3)[C@H](C)C2)cn1 [Compound 134] |
| 7.6 | CC(C)c1ccc(OC(=O)N2CCN(c3ccc(C#N)nn3)[C@@H](C)C2)cc1 [Compound 138] |
| 38 | CSc1cccc(CC(=O)N2CCN(c3ccc(C#N)nn3)[C@H](C)C2)c1 [Compound 135] |
| 9 | CC(C)c1ccc(CC(=O)N2CCN(c3ccc(C#N)nn3)[C@H](C)C2)cn1 [Compound 131] |
| 2.5 | CC(c1ccc(CC(=O)N2CCN(c3ccc(C#N)nn3)[C@@H](C)C2)cc1)C(F)(F)F (some centres unmarked) [Compound 144] |
| 2.4 | CC(C)c1ccc(CC(=O)N2CCN(c3ccc(C#N)nn3)C(C)(C)C2)cc1 [Compound 136] |
| 0.27 | CC(C)c1ccc(CC(=O)N2C[C@@H](C)N(c3ccc(C#N)nn3)[C@@H](C)C2)cc1 [Compound 137] |
| 22.4 | CSc1ccc(CC(=O)N2CCN(c3ccc(C#N)nn3)[C@H](C)C2)cc1 [Compound 129] |

test system: diabetic ob/ob mice; test: Blood glucose in adult male diabetic ob/ob mice; assay type: in vivo; details: 10 mg/kg orally at 12-hr intervals, 5 doses, pantothenate-deficient chow, in 30% Captisol; non-diabetic range 120±20 mg/dL
Experimental: Compound was administered orally at 12-hr intervals for a total of 5 doses starting at T=0 hr. Blood glucose from the tail vein was measured just prior to each administration. Compound was formulated in 30% Captisol (o); 30% Captisol only (•).

| SMILES | blood glucose level |
| --- | --- |
| CC(C)c1ccc(CC(=O)N2CCN(c3ccc(C#N)nn3)CC2)cc1 [6-(4-(2-(4-isopropylphenyl)acetyl)piperazin-1-yl)pyridazine-3-carbonitrile] | reduces the blood glucose level to values within the range of non-diabetic mice |
